Data taken from patent US12459951B2, “Compounds that interact with RAS superfamily proteins for treatment of cancers, inflammatory diseases, rasopathies, and fibrotic disease” (SHY Therapeutics, LLC, priority 2022, dated 2025).
Values belong to the compound of their own block, whether it stands above or below them.

Tests used:
[1] = system: Smad2/Smad3 phosphorylation; assay: Phospho-Smad2/3 Inhibition Assay (western blot), Panc-1; type: cell-based, human; conditions: at 10 μM, Panc-1 pancreatic cancer cell line; starred symbols = activation
In short: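 Western blotting of lysates (15-50 μg protein) read phosphorylation of Smad2 Ser465/467 and Smad3 Ser423/425. Before lysis, Panc-1 cells got 1 h of 10 ng/ml TGF-b1 following 3 h compound exposure at 37° C (10 μM final, or serial dilutions for IC50, 0.3% DMSO) after overnight 0.5% FBS starvation.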

[2] = system: MiaPaca-2 (expressing KRAS G12C mutant); assay: Proliferation Assay (Cell Viability Assay); type: cell-based; conditions: Homo sapiens, MIA PaCa-2; read-out: Proliferation in MiaPaca-2: IC50
In short: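 After 2–4 days' exposure at 37 °C, 5% CO2 to a single 10 μM final concentration or a dilution series (IC50), percent proliferation inhibition was derived from CellTiter 96 Aqueous One viability readings. The medium contained 0.3% DMSO and 10% FBS. KRAS G12C MiaPaca-2 cells were plated at 2000–5000/well the day before.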

SMILES: Cc1c(-c2ccn(C3CC3)n2)cn2nc(-c3nccn3C)nc(Nc3cc(OCCN(C)C)ccn3)c12 [Compound 147, 6-(1-Cyclopropyl-1H-pyrazol-3-yl)-N-(4-(2-(dimethylamino)ethoxy)pyridin-2-yl)-5-methyl-2-(1-methyl-1H-imidazol-2-yl)pyrrolo[2,1-f][1,2,4]triazin-4-amine]
% inh of Smad2/3 phosphorylation in Panc-1 [1]: C (C = 46-75% inhibition) | IC50 [2]: > 1000 nM

SMILES: Cc1c(-c2ccn(C3CC3)n2)cn2nc(-c3nccn3C)nc(Nc3cc(OCCCN(C)C)ccn3)c12 [Compound 148, 6-(1-Cyclopropyl-1H-pyrazol-3-yl)-N-(4-(3-(dimethylamino)propoxy)pyridin-2-yl)-5-methyl-2-(1-methyl-1H-imidazol-2-yl)pyrrolo[2,1-f][1,2,4]triazin-4-amine]
% inh of Smad2/3 phosphorylation in Panc-1 [1]: A (A = 1-25% inhibition) | IC50 [2]: > 1000 nM

SMILES: Cc1c(-c2ccn(C3CC3)n2)cn2nc(-c3nccn3C)nc(Nc3cc(O)ccn3)c12 [Compound 150, 2-((6-(1-Cyclopropyl-1H-pyrazol-3-yl)-5-methyl-2-(1-methyl-1H-imidazol-2-yl)pyrrolo[2,1-f][1,2,4]triazin-4-yl)amino)pyridin-4-ol]
% inh of Smad2/3 phosphorylation in Panc-1 [1]: A (A = 1-25% inhibition) | IC50 [2]: > 1000 nM

SMILES: CO[C@H]1C[C@H](Nc2nc(-c3nccn3C)nn3cc(-c4cccnc4)c(C)c23)C1 [Compound 151, N-((1r,3r)-3-Methoxycyclobutyl)-5-methyl-2-(1-methyl-1H-imidazol-2-yl)-6-(pyridin-3-yl)pyrrolo[2,1-f][1,2,4]triazin-4-amine]
% inh of Smad2/3 phosphorylation in Panc-1 [1]: A (A = 1-25% inhibition) | IC50 [2]: > 1000 nM

SMILES: COCCO[C@H]1C[C@H](Nc2nc(-c3nccn3C)nn3cc(-c4cccnc4)c(C)c23)C1 [Compound 152, N-((1r,3r)-3-(2-methoxyethoxy)cyclo-butyl)-5-methyl-2-(1-methyl-1H-imidazol-2-yl)-6-(pyridin-3-yl)pyrrolo[2,1-f][1,2,4]triazin-4-amine]
% inh of Smad2/3 phosphorylation in Panc-1 [1]: A (A = 1-25% inhibition) | IC50 [2]: > 1000 nM

SMILES: CO[C@H]1C[C@@H](Nc2nc(-c3nccn3C)nn3cc(-c4cccnc4)c(C)c23)C1 [Compound 153, N-((1s,3s)-3-methoxy-cyclobutyl)-5-methyl-2-(1-methyl-1H-imidazol-2-yl)-6-(pyridin-3-yl)pyrrolo[2,1-f][1,2,4]triazin-4-amine]
% inh of Smad2/3 phosphorylation in Panc-1 [1]: C (C = 46-75% inhibition) | IC50 [2]: > 1000 nM

SMILES: CO[C@H]1C[C@H](Nc2nc(-c3nccn3C)nn3cc(-c4ccncc4)c(C)c23)C1 [Compound 159, N-((1r,3r)-3-Methoxycyclobutyl)-5-methyl-2-(1-methyl-1H-imidazol-2-yl)-6-(pyridin-4-yl)pyrrolo[2,1-f][1,2,4]triazin-4-amine]
% inh of Smad2/3 phosphorylation in Panc-1 [1]: C (C = 46-75% inhibition) | IC50 [2]: > 1000 nM

SMILES: COc1cc(-c2cn3nc(-c4nccn4C)nc(N[C@H]4C[C@H](OC)C4)c3c2C)ccn1 [Compound 160, N-((1r,3r)-3-Methoxycyclobutyl)-6-(2-methoxypyridin-4-yl)-5-methyl-2-(1-methyl-1H-imidazol-2-yl)pyrrolo[2,1-f][1,2,4]triazin-4-amine]
% inh of Smad2/3 phosphorylation in Panc-1 [1]: A* (A* = 1-25% activation) | IC50 [2]: > 1000 nM

SMILES: COCCO[C@H]1C[C@H](Nc2nc(-c3nccn3C)nn3cc(-c4ccnc(OC)c4)c(C)c23)C1 [Compound 161, N-((1r,3r)-3-(2-Methoxy-ethoxy)cyclo-butyl)-6-(2-methoxy-pyridin-4-yl)-5-methyl-2-(1-methyl-1H-imidazol-2-yl)pyrrolo[2,1-f][1,2,4]triazin-4-amine]
% inh of Smad2/3 phosphorylation in Panc-1 [1]: B (B = 26-45% inhibition) | IC50 [2]: > 1000 nM

SMILES: COc1cc(-c2cn3nc(-c4nccn4C)nc(N[C@H]4C[C@@H](OC)C4)c3c2C)ccn1 [Compound 162, N-((1s,3s)-3-Methoxycyclobutyl)-6-(2-methoxypyridin-4-yl)-5-methyl-2-(1-methyl-1H-imidazol-2-yl)pyrrolo[2,1-f][1,2,4]triazin-4-amine]
% inh of Smad2/3 phosphorylation in Panc-1 [1]: A (A = 1-25% inhibition) | IC50 [2]: > 1000 nM

More lines, main results first:

IC50 [2]: < 150 nM
SMILES: Cc1c(-c2ccn(C3CC3)n2)cn2nc(-c3nccn3C)nc(Nc3cc(OC(F)(F)F)ccn3)c12 [Compound 138, 6-(1-Cyclopropyl-1H-pyrazol-3-yl)-5-methyl-2-(1-methyl-1H-imidazol-2-yl)-N-(4-(trifluoromethoxy)pyridin-2-yl)pyrrolo[2,1-f][1,2,4]triazin-4-amine]
% inh of Smad2/3 phosphorylation in Panc-1 [1]: A* (A* = 1-25% activation)

IC50 [2]: < 150 nM
SMILES: Cc1c(-c2ccn(C3CC3)n2)cn2nc(-c3nccn3C)nc(Nc3cc(OC(F)F)ccn3)c12 [Compound 139, 6-(1-Cyclopropyl-1H-pyrazol-3-yl)-N-(4-(difluoromethoxy)pyridin-2-yl)-5-methyl-2-(1-methyl-1H-imidazol-2-yl)pyrrolo[2,1-f][1,2,4]triazin-4-amine]
% inh of Smad2/3 phosphorylation in Panc-1 [1]: A* (A* = 1-25% activation)

IC50 [2]: < 150 nM
SMILES: Cc1c(-c2ccn(C3CC3)n2)cn2nc(-c3nccn3C)nc(Nc3cc(OCC(F)(F)F)ccn3)c12 [Compound 140, 6-(1-Cyclopropyl-1H-pyrazol-3-yl)-5-methyl-2-(1-methyl-1H-imidazol-2-yl)-N-(4-(2,2,2-trifluoroethoxy)pyridin-2-yl)pyrrolo[2,1-f][1,2,4]triazin-4-amine]
% inh of Smad2/3 phosphorylation in Panc-1 [1]: A (A = 1-25% inhibition)

IC50 [2]: < 150 nM
SMILES: CCOc1ccnc(Nc2nc(-c3nccn3C)nn3cc(-c4ccn(C5CC5)n4)c(C)c23)c1 [Compound 141, 6-(1-Cyclopropyl-1H-pyrazol-3-yl)-N-(4-ethoxypyridin-2-yl)-5-methyl-2-(1-methyl-1H-imidazol-2-yl)pyrrolo[2,1-f][1,2,4]triazin-4-amine]
% inh of Smad2/3 phosphorylation in Panc-1 [1]: D (D = 76-100% inhibition)

IC50 [2]: < 150 nM
SMILES: Cc1c(-c2ccn(C3CC3)n2)cn2nc(-c3nccn3C)nc(Nc3cc(OC4CC4)ccn3)c12 [Compound 142, N-(4-Cyclopropoxypyridin-2-yl)-6-(1-cyclopropyl-1H-pyrazol-3-yl)-5-methyl-2-(1-methyl-1H-imidazol-2-yl)pyrrolo[2,1-f][1,2,4]triazin-4-amine]
% inh of Smad2/3 phosphorylation in Panc-1 [1]: C (C = 46-75% inhibition)

IC50 [2]: < 150 nM
SMILES: Cc1c(-c2ccn(C3CC3)n2)cn2nc(-c3nccn3C)nc(Nc3ccccn3)c12 [Compound 143, 6-(1-Cyclopropyl-1H-pyrazol-3-yl)-5-methyl-2-(1-methyl-1H-imidazol-2-yl)-N-(pyridin-2-yl)pyrrolo[2,1-f][1,2,4]triazin-4-amine]
% inh of Smad2/3 phosphorylation in Panc-1 [1]: A (A = 1-25% inhibition)

IC50 [2]: < 150 nM
SMILES: Cc1ccnc(Nc2nc(-c3nccn3C)nn3cc(-c4ccn(C5CC5)n4)c(C)c23)c1 [Compound 144, 6-(1-Cyclopropyl-1H-pyrazol-3-yl)-5-methyl-2-(1-methyl-1H-imidazol-2-yl)-N-(4-methylpyridin-2-yl)pyrrolo[2,1-f][1,2,4]triazin-4-amine]
% inh of Smad2/3 phosphorylation in Panc-1 [1]: D (D = 76-100% inhibition)

IC50 [2]: < 150 nM
SMILES: Cc1c(-c2ccn(C3CC3)n2)cn2nc(-c3nccn3C)nc(Nc3cc(N(C)C)ccn3)c12 [Compound 145, N^2-(6-(1-Cyclopropyl-1H-pyrazol-3-yl)-5-methyl-2-(1-methyl-1H-imidazol-2-yl)pyrrolo[2,1-f][1,2,4]triazin-4-yl)-N^4,N^4-dimethylpyridine-2,4-diamine]
% inh of Smad2/3 phosphorylation in Panc-1 [1]: B* (B* = 26-45% activation)

IC50 [2]: 150 to 500 nM
SMILES: Cc1c(-c2ccn(C3CC3)n2)cn2nc(-c3nccn3C)nc(Nc3cc(OCCO)ccn3)c12 [Compound 146, 2-((2-((6-(1-Cyclopropyl-1H-pyrazol-3-yl)-5-methyl-2-(1-methyl-1H-imidazol-2-yl)pyrrolo[2,1-f][1,2,4]triazin-4-yl)amino)pyridin-4-yl)oxy)ethan-1-ol]
% inh of Smad2/3 phosphorylation in Panc-1 [1]: C (C = 46-75% inhibition)

IC50 [2]: 510 to 1000 nM
SMILES: Cc1c(-c2ccn(C3CC3)n2)cn2nc(-c3nccn3C)nc(Nc3cc(OCCCO)ccn3)c12 [Compound 149, 3-((2-((6-(1-Cyclopropyl-1H-pyrazol-3-yl)-5-methyl-2-(1-methyl-1H-imidazol-2-yl)pyrrolo[2,1-f][1,2,4]triazin-4-yl)amino)pyridin-4-yl)oxy)propan-1-ol]
% inh of Smad2/3 phosphorylation in Panc-1 [1]: A (A = 1-25% inhibition)

IC50 [2]: < 150 nM
SMILES: Cc1c(-c2cccnc2)cn2nc(-c3nccn3C)nc(Nc3ccncn3)c12 [Compound 156, 5-Methyl-2-(1-methyl-1H-imidazol-2-yl)-6-(pyridin-3-yl)-N-(pyrimidin-4-yl)pyrrolo[2,1-f][1,2,4]triazin-4-amine]
% inh of Smad2/3 phosphorylation in Panc-1 [1]: D (D = 76-100% inhibition)

IC50 [2]: < 150 nM
SMILES: COc1ccnc(Nc2nc(-c3nccn3C)nn3cc(-c4cccnc4)c(C)c23)c1 [Compound 157, N-(4-Methoxy-pyridin-2-yl)-5-methyl-2-(1-methyl-1H-imidazol-2-yl)-6-(pyridin-3-yl)pyrrolo[2,1-f][1,2,4]triazin-4-amine]
% inh of Smad2/3 phosphorylation in Panc-1 [1]: B* (B* = 26-45% activation)

IC50 [2]: < 150 nM
SMILES: COc1ccnc(Nc2nc(-c3nccn3C)nn3cc(-c4cccnc4)c(C)c23)n1 [Compound 158, N-(4-Methoxy-pyrimidin-2-yl)-5-methyl-2-(1-methyl-1H-imidazol-2-yl)-6-(pyridin-3-yl)pyrrolo[2,1-f][1,2,4]triazin-4-amine]
% inh of Smad2/3 phosphorylation in Panc-1 [1]: B* (B* = 26-45% activation)
